# Measured values published in paper PMC12691742, “Anti-Cancer Outcome of Glucocorticoid Receptor Transrepression by Synephrine Derivatives in Hematological Malignancies” (International Journal of Molecular Sciences, 2025).
# Entries after “also recorded” stand apart in the source; their conditions may differ.
# Columns and labels:
# [1] = system: FKBP51, GILZ, DDIT4 mRNA expression in K562 and Granta cells; experiment: Q-PCR of GR transactivation marker genes; format: cell-based; conditions: 4 h (FKBP51, GILZ) or 24 h (DDIT4); Dex 10 µM, 10S-E2 0.1 µM; vs control
# Source text: Q-PCR results were confirmed by Western blot analysis of the level of GR phosphorylated by Ser211, known as a crucial protein modification for GR TA realization because of its binding to short cysteine-rich fragments of the coactivator CREB-binding protein [41].
# (§1) Figure 3 Effects of synephrine derivatives on GR transactivation in Granta lymphoma and K562 leukemia cells. (A) Q-PCR analysis of FKBP51, GILZ, and DDIT4 mRNA expression in K562 and Granta cells. […] The Q-PCR results were normalized to the expression of the housekeeping gene RPL27 and are presented as fold changes compared to the control. The mean ± SD was calculated for three individual samples/condition (n = 3). Statistically significant differences compared to the control: * p < 0.05, ** p < 0.01. (B) The levels of the nuclear fraction of phospho-GR (Ser211) were determined using Western blot analysis (n = 3; characteristic images are presented in the figure). Histone H3 was used as a loading control.
# Total RNA isolation from cell cultures and murine bones, reverse transcription, and Q-PCR were performed as described in [36]. Primers were designed using NCBI Primer-BLAST https://www.ncbi.nlm.nih.gov/tools/primer-blast/, accessed on 25 August 2025 (Supplementary Table S1). Results were normalized to the expression of the housekeeping RPL27 и Rpl27 genes. The experiments were performed in triplicate.
# [2] = system: leukemia and lymphoma cells (Granta, K562); set-up: method as in PMID 39858397; conditions: cited from earlier work
# [3] = system: Rankl, Mmp9, Tsc2, Trap, Bglap mRNA expression in bone tissue; experiment: Glucocorticoid-induced osteoporosis model: Q-PCR of marker genes in bone tissue; format: in vivo, mice; conditions: 5 weeks; Dex 20 mg/kg, 10S-E2 10 mg/kg
# Experimental: (§2) (A) H&E bone staining and quantification of cortical bone thickness. (B) Q-PCR analysis of Rankl, Mmp9, Tsc2, Trap, and Bglap mRNA expression in bone tissue. […] (C) H&E skin staining and quantification of dermal adipose thickness (50 images per treatment group of 10 animals). Statistically significant differences compared to the control: * p < 0.05, ** p < 0.01.
# Total RNA isolation from cell cultures and murine bones, reverse transcription, and Q-PCR were performed as described in [36]. […] Results were normalized to the expression of the housekeeping RPL27 и Rpl27 genes. The experiments were performed in triplicate.
# (§3) The protocol for the experiment was approved by the local N.N. Blokhin National Medical Research Center Ethics Committee and corresponded to the guidelines for the welfare and use of animals in cancer research adopted by The United Kingdom Coordinating Committee on Cancer Prevention Research. […] Body weight was recorded twice a week for toxicity control.
# BALB/c female mice = experiment: Glucocorticoid-induced osteoporosis model: bone and skin morphometry, body weight; format: in vivo; conditions: Dex 20 mg/kg
# Source text: as §2, §3
# Bone and skin samples from the GIOP experiment were fixed in formaldehyde and embedded in paraffin, and sections were stained with hematoxylin and eosin. After formaldehyde fixation, the bone samples were decalcified in decalcification buffer (0.5 M EDTA, 0.7 mM NaOH, pH7.0) for 14 days, washed twice with PBS, and further processed according to the standard histology protocol. The dermal adipose and bone thickness were quantified in sections stained with hematoxylin and eosin. At least five individual fields per slide of each sample/treatment (at least 50 images/treatment group) were analyzed using Axioplan2 microscope software (“Carl Zeiss”, Jena, Germany). The dermal adipose or bone thickness in treated animals is presented as a percentage of the control animals.
# P388 murine lymphoma = experiment: Transplantable P388 murine lymphoma model; format: in vivo, mice; conditions: P388 model; Dex 1 mg/kg, 10S-E2 10 mg/kg i.p. 3 times per week
# Experimental: Figure 5 Pro-apoptotic and anti-cancer effects of synephrine derivatives in vitro and in vivo. (A) Effect of 4S-C2, 8S-E3, 10S-E2, and 13S-G2 on cell cycle progression in K562 and Granta cells after 24 h of incubation. The cells were fixed with ethanol, stained with propidium iodide, and analyzed using flow cytometry. Statistically significant difference compared to control: *—p < 0.05, **—p < 0.01 (n = 3). (B) In vivo anti-cancer activity was evaluated using the transplantable P388 murine lymphoma model. […] Tumor nodule size was measured twice a week using digital calipers. Statistically significant differences compared to the control: * p < 0.05, ** p < 0.01.
# The protocol for the experiment was approved by the local N.N. Blokhin National Medical Research Center Ethics Committee and corresponded to the guidelines for the welfare and use of animals in cancer research adopted by The United Kingdom Coordinating Committee on Cancer Prevention Research. P388 cells were injected i.p. into 5-week-old female DBA/2 mice (“Stolbovaya Farm”, Stolbovaya, Russia). After 15 days, the cells were collected from the peritoneum, washed, and resuspended in PBS. For the experiments, 0.1 mL containing 2 million cells obtained from the ascites was inoculated s.c. in 5-week-old female BDF1 mice (“Stolbovaya Farm”, Stolbovaya, Russia). […] Body weight was recorded twice a week for toxicity determination. Tumor size was measured three times per week using digital calipers.
# [4] = system: GR phosphorylated by Ser211 in K562 and Granta cells; experiment: Western blot of nuclear phospho-GR (Ser211); format: cell-based; conditions: 10 h; Dex 10 µM, 4S-C2 50 µM, 8S-E3 50 µM, 10S-E2 15 µM, 13S-G2 25 µM
# Experimental: as §1
# Western blot analysis was performed as previously described. Proteins were resolved using SDS-PAGE. Membranes were blocked with 5% nonfat milk solution and then incubated with primary antibodies against phosphorylated GR (pGR, Ser211) (“Santa Cruz Biotechnology”, Santa Cruz, CA, USA) overnight at 4 °C. To verify equal protein loading and adequate transfer, the membranes were probed with Histone H3 antibodies (“Cell Signaling”, Boston, MA, USA). Goat anti-rabbit IgGs (“Jackson Immuno Research”, West Grove, PA, USA) were used as secondary antibodies. Signals were detected using ECL reagent and an ImageQuant LAS4000 system (“GE HealthCare”, Chicago, IL, USA). ImageJ 1.54h software was used for densitometry. The experiments were performed in triplicate.
# 7 K562, pGR nuclear 5 Granta, pGR nuclear
# Supplementary Figure S 22. Quantification of Western blot analysis. K562 and Granta cells […]
# μM) and 13S-G2 (25 μ M) for 10 h. Quantification of Western blot anal ysis of p- GR protein levels was done usin g Im a ge J f ree so ftwar e. Statisticall y significant diff eren ces as compared to control: […]
# [5] = i.p. every 24 h for 5 weeks, 10S-E2 10 mg/kg
structure (smiles),measurement,setting,value
"CCCCCCNCC(O)c1ccc(OCc2ccccc2)cc1 (stereo not drawn) [10S-E2, 1-[4-(benzyloxy)phenyl]-2-(hexylamino)ethanol]","expression of TA marker genes FKBP51, GILZ, DDIT4",[1],did not increase the expression
same,IC50,"[2]; leukemia and lymphoma cells, read-out: cell viability IC50",13 to 26 µM
same,concentrations of cytotoxic effects,[2]; mantle cell lymphoma Granta and chronic myeloleukemia K562 cells,10 to 20 µM
same,Mmp9 mRNA expression in bone tissue,[3],significantly downregulated
same,Rankl mRNA expression in bone tissue,[3],significantly downregulated
same,Trap mRNA expression in bone tissue,[3],significantly downregulated
same,Tsc2 mRNA expression in bone tissue,[3],significantly downregulated
same,animal body weight vs control,"BALB/c female mice; GIOP study, 10S-E2 10 mg/kg i.p. every 24 h for 5 weeks",no statisticall y si gnificant differences; also recorded: similar
same,loss of cortical bone thickness,BALB/c female mice; [5],did not cause any loss
same,reduction of dermal adipose tissue / skin atrophy,BALB/c female mice; [5],preserved the skin architecture
same,animal body weight change vs control,P388 murine lymphoma,no statisticall y si gnificant differences
same,GR phosphorylation level at Ser211,[4],did not affect the phosphorylation
